According to patent US20240199640A1, “NEGATIVE ALLOSTERIC MODULATORS OF METABOTROPIC GLUTAMATE RECEPTOR 2” (priority 2021, published 2024):
Where “and” joins values, the source holds several entries; their conditions need not be identical. Identical values can stand only once.

Columns and labels:
human mGlu2 = biological target: T1, human mGlu2 (Homo sapiens, UniProt Q14416); experiment: mGlu GIRK cell-based thallium flux assay, human mGlu2; conditions: HEK-293 cells co-expressing human mGlu2 and GIRK; EC80 glutamate; Tl flux
T1 construct: expressed in transfected cells; host or cells: HEK-293
Description: (§1) The day before the assay, GIRK cells co-expressing human mGlu3, human or rat mGlu2, as described above, were plated in black-walled, clear-bottomed, amine-coated 384-well plates at a density of 15,000 cells/20 μL/well in the assay medium (glutamine-depleted basal DMEM supplemented with 10% dialyzed FBS, 20 mM HEPES, 1 mM sodium pyruvate). Cells were incubated at 37° C. in the presence of 5% CO2. […] Cells were washed with assay buffer using a microplate washer to remove the medium, resulting in 20 μL of buffer remaining in each well. Immediately, 20 μL of 2× Thallos dye solution was added to cells, and incubated for one hour at 25° C. During the cell dye loading incubation period, a 10-point concentration serial dilution of compound was created from a 10 mM DMSO compound stock by performing a 1:3 serial dilution in DMSO using the Bravo liquid handler. The 2× compound plate was generated by transferring 0.24 μL of the diluted compound in each well to a daughter plate using an Echo acoustic liquid handler.
(§2) After dye-loading, cell plates were washed with assay buffer to remove excess extracellular dye using a microplate washer, resulting in 20 μL of buffer remaining in each well. After a ten-minute equilibration period, cell, compound and agonist plates were loaded into a Hamamatsu μCell kinetic imaging plate reader equipped with liquid handler to monitor fluorescence changes at 480 nm excitation and 540 nm emission settings. Briefly, after collection of baseline fluorescence, 20 μL of compound was added and incubated for two minutes and twenty seconds. This is immediately followed by adding 10 μL of glutamate-thallium buffer to the wells containing compound. The fluorescent signal was monitored an additional 2.5 minutes after the glutamate addition. Multiple reference wells containing no compound received either no glutamate (for a baseline reference), […] glutamate, or ECmax glutamate (for normalization to maximum response). Fluorescence was measured throughout the experiment at a frequency of 1 measurement per every 2 seconds before the glutamate addition and a frequency of 1 measurement per every 1 second after the glutamate addition. Each compound concentration series occurred one time in each plate, and replicates from two or three plates were used in each experimental run. Thallium solutions were handled and disposed of according to guidelines from the Vanderbilt University Chemical Safety department.
(§3) Data were normalized using a static ratio function (F/F0) by dividing every fluorescent measurement by the initial fluorescent value for the corresponding well. The increase in signal resulting from the glutamate/thallium addition of the second add was measured by determining the slope from 3 seconds to 13 seconds after the addition. The average of all baseline slopes (no compound, no glutamate) was determined and this value was subtracted from all other slope values. The average of all ECmax slopes was determined and this value was used to normalize the baseline-corrected slopes to a percent max value (% Emax). The % Emax values for each compound series were plotted versus the log of the concentration and fit to a 4-parameter logistical equation with no fixed parameters.
(§4) Potency is reported as the IC50 resulting from the curve fit.

human mGlu3 = biological target: T2, human mGlu3 (Homo sapiens, UniProt Q14832); experiment: mGlu GIRK cell-based thallium flux assay, human mGlu3; conditions: HEK-293 cells co-expressing human mGlu3 and GIRK; EC80 glutamate; Tl flux
T2 construct: expressed in transfected cells; host or cells: HEK-293
Description: Human embryonic kidney (HEK-293) cell lines stably co-expressing human or rat mGlu2 and G protein-coupled inwardly rectifying potassium (GIRK) channels, or human mGlu3 and GIRK, were used for in vitro evaluation of compound activity in thallium flux assay using a fluorescent thallium indicator dye.
The day before the assay, GIRK cells co-expressing human mGlu3, human or rat mGlu2, as described above, were plated in black-walled, clear-bottomed, amine-coated 384-well plates at a density of 15,000 cells/20 μL/well in the assay medium (glutamine-depleted basal DMEM supplemented with 10% dialyzed FBS, 20 mM HEPES, 1 mM sodium pyruvate). Cells were incubated at 37° C. in the presence of 5% CO2. The next day, assay buffer (Hanks balanced salt solution, 20 mM HEPES, 4.16 mM sodium bicarbonate, pH 7.2) was prepared to dilute compounds and Thallos AM fluorescent dye solution. The 2× Thallos dye solution (final concentration 0.34 μM to the cells) was prepared by mixing the dye stock (2.97 mM in DMSO) to 1:1 with 10% pluronic acid before adding to the assay buffer. Cells were washed with assay buffer using a microplate washer to remove the medium, resulting in 20 μL of buffer remaining in each well. Immediately, 20 μL of 2× Thallos dye solution was added to cells, and incubated for one hour at 25° C. During the cell dye loading incubation period, a 10-point concentration serial dilution of compound was created from a 10 mM DMSO compound stock by performing a 1:3 serial dilution in DMSO using the Bravo liquid handler. The 2× compound plate was generated by transferring 0.24 μL of the diluted compound in each well to a daughter plate using an Echo acoustic liquid handler. This is further diluted in 40 μL assay buffer, resulting in a range from 30 μM to 1.5 nM final concentration in the assay. The agonist plate (5×) was prepared to include EC80 glutamate concentration (a concentration to elicit 80% of a maximally effective glutamate concentration) in thallium buffer (125 mM […], 1 mM magnesium sulfate, 1.8 mM calcium sulfate, 5 mM glucose, 10 mM HEPES, pH 7.2, 12.5 mM thallium sulfate).
as §2
Data were normalized using a static ratio function (F/F0) by dividing every fluorescent measurement by the initial fluorescent value for the corresponding well. The increase in signal resulting from the glutamate/thallium addition of the second add was measured by determining the slope from 3 seconds to 13 seconds after the addition. […]

rat mGlu2 = biological target: T3, rat mGlu2 (Rattus norvegicus, UniProt P31421); experiment: mGlu GIRK cell-based thallium flux assay, rat mGlu2; conditions: rat mGlu2 GIRK IC50 (nM), HEK-293 cells co-expressing rat mGlu2 and GIRK; EC80 glutamate; Tl flux
T3 construct: expressed in transfected cells; host or cells: HEK-293
Description: as §1, §2, §3, §4

T3 sequence (P31421 19-872): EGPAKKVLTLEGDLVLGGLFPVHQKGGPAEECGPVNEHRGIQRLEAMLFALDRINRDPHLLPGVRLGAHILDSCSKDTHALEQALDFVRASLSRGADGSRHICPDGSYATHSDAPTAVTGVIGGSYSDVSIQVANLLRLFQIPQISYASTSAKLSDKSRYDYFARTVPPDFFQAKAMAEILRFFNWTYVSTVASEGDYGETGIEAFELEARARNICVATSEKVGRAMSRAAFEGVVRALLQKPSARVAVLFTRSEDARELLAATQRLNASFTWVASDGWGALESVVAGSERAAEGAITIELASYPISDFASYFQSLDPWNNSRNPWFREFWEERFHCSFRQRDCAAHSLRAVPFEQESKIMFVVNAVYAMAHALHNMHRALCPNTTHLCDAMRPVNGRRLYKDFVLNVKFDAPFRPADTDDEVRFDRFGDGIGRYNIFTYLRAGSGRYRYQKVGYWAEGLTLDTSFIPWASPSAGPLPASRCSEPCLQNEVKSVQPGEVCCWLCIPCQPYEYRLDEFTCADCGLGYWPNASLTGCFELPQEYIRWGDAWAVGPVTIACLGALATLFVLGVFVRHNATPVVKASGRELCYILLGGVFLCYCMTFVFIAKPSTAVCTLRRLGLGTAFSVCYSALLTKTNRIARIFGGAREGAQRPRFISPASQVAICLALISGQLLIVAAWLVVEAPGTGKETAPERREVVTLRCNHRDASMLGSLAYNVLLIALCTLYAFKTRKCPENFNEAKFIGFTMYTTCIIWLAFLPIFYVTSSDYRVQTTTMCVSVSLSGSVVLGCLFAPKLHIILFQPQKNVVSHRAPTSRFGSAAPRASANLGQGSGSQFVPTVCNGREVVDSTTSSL
T2 sequence (Q14832 23-879): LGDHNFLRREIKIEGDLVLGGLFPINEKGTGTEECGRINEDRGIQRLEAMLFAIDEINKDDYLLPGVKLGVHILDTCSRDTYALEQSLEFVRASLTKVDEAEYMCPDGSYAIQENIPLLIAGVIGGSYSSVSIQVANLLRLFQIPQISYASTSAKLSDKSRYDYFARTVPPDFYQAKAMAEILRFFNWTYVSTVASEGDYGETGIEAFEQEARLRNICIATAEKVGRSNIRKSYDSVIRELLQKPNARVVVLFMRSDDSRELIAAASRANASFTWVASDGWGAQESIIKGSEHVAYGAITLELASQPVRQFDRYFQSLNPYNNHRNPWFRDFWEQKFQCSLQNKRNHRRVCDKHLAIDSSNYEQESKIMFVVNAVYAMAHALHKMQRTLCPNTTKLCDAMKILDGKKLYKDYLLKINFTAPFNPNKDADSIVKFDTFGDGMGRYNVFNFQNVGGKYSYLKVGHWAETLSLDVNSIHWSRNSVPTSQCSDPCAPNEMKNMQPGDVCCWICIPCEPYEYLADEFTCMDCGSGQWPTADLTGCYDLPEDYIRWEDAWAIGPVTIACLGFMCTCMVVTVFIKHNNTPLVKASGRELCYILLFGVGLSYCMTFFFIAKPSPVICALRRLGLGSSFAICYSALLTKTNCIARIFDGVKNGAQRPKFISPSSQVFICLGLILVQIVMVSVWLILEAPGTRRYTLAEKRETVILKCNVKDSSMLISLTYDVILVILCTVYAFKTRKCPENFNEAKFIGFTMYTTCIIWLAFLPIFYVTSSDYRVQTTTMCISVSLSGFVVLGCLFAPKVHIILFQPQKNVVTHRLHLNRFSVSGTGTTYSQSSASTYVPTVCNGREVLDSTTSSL
T1 sequence (Q14416 19-872): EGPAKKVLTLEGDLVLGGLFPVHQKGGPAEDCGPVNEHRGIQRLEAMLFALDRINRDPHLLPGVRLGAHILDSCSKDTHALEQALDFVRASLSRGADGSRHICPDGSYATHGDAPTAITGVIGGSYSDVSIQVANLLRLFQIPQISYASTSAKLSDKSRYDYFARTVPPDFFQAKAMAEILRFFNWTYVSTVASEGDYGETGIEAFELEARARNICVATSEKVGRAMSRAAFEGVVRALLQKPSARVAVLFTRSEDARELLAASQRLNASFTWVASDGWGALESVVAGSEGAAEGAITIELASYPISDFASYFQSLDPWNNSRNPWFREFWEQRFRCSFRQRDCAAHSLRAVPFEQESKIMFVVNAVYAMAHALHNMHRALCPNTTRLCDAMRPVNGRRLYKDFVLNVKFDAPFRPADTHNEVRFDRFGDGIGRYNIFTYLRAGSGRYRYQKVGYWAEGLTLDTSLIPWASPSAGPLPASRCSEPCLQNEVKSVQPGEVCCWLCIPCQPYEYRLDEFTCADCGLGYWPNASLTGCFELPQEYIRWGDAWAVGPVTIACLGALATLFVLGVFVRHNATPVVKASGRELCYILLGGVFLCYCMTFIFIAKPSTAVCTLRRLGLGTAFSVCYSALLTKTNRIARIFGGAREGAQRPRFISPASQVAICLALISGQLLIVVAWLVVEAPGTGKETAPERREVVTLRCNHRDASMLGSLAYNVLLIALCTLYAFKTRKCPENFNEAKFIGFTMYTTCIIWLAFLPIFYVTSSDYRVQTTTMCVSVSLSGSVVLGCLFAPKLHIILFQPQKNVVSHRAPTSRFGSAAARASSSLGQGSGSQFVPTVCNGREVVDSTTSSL

Structure (SMILES) | IC50 (human mGlu2) | Human mGlu3 GIRK IC50 (nM) (human mGlu3) | IC50 (rat mGlu2)
COc1ccc(-c2cc3c(cc2OCc2csc(C)n2)CNC3=O)c(F)c1 [Compound 15, 6-(2-fluoro-4-methoxyphenyl)-5-((2-methylthiazol-4-yl)methoxy)isoindolin-1-one] | 360 nM | Inactive | –
Cc1ocnc1COc1cc2c(cc1-c1ccc(F)cc1)C(=O)NC2 [Compound 9, 6-(4-fluorophenyl)-5-((5-methyloxazol-4-yl)methoxy)isoindolin-1-one] | 150 nM | Inactive | –
COc1ccc(-c2cc3c(cc2OCc2ccn(C(F)F)n2)CNC3=O)c(F)c1 [Compound 25, 5-((1-(difluoromethyl)-1H-pyrazol-3-yl)methoxy)-6-(2-fluoro-4-methoxyphenyl)isoindolin-1-one] | 40 nM | Inactive | –
Cn1ccc(COc2cc3c(cc2-c2ccc(F)cc2)C(=O)NC3)n1 [Compound 1, 6-(4-fluorophenyl)-5-((1-methyl-1H-pyrazol-3-yl)methoxy)isoindolin-1-one] | 594 nM | Inactive | –
COc1ccc(-c2cc3c(cc2OCc2ccn(C)n2)CNC3=O)c(F)c1 [Compound 11, 6-(2-fluoro-4-methoxyphenyl)-5-((1-methyl-1H-pyrazol-3-yl)methoxy)isoindolin-1-one] | 131 nM | Inactive | –
Cc1nc(COc2cc3c(cc2-c2ccc(F)cc2)C(=O)NC3)cs1 [Compound 18, 6-(4-fluorophenyl)-5-((2-methylthiazol-4-yl)methoxy)isoindolin-1-one] | 363 nM | Inactive | –
Cc1csc(COc2cc3c(cc2-c2ccc(F)cc2)C(=O)NC3)n1 [Compound 3, 6-(4-fluorophenyl)-5-((4-methylthiazol-2-yl)methoxy)isoindolin-1-one] | 418 nM | Inactive | –
O=C1NCc2cc(OCc3ccncc3)c(-c3ccc(F)cc3)cc21 [Compound 6, 6-(4-fluorophenyl)-5-(pyridin-4-ylmethoxy)isoindolin-1-one] | 237 nM | Inactive | –
Cc1ccc(COc2cc3c(cc2-c2ccc(F)cc2)C(=O)NC3)cn1 [Compound 5, 6-(4-fluorophenyl)-5-((6-methylpyridin-3-yl)methoxy)isoindolin-1-one] | 392 nM | Inactive | –
O=C1NCc2cc(OC3CN(Cc4cccnc4Cl)C3)c(-c3ccc(F)cc3)cc21 [Compound 82, 5-((1-((2-chloropyridin-3-yl)methyl)azetidin-3-yl)oxy)-6-(4-fluorophenyl)isoindolin-1-one] | – | – | 2610 nM
Cc1cc(-c2cc3c(cc2OCc2ccn(C)n2)CNC3=O)n(C)n1 [Compound 48, 6-(1,3-dimethyl-1H-pyrazol-5-yl)-5-((1-methyl-1H-pyrazol-3-yl)methoxy)isoindolin-1-one] | – | – | > 10000 nM
Cn1ccc(COc2cc3c(cc2-c2ccc4c(c2)CCO4)C(=O)NC3)n1 [Compound 51, 6-(2,3-dihydrobenzofuran-5-yl)-5-((1-methyl-1H-pyrazol-3-yl)methoxy)isoindolin-1-one] | – | – | 965 nM
Cc1cc(S(=O)(=O)N2CC(Oc3cc4c(cc3-c3ccc(F)cc3)C(=O)NC4)C2)nn1C [Compound 77, 5-((1-((1,5-dimethyl-1H-pyrazol-3-yl)sulfonyl)azetidin-3-yl)oxy)-6-(4-fluorophenyl)isoindolin-1-one] | – | – | 2670 nM
CC(Oc1cc2c(cc1-c1ccc(-c3cccs3)cc1)C(=O)NC2)c1ccncc1 (stereo not drawn) [Compound 36, 5-(1-(pyridin-4-yl)ethoxy)-6-(4-(thiophen-2-yl)phenyl)isoindolin-1-one] | – | – | > 30000 nM
Cn1ccc(COc2cc3c(cc2-c2ccc4ncsc4c2)C(=O)NC3)n1 [Compound 52, 6-(benzo[d]thiazol-6-yl)-5-((1-methyl-1H-pyrazol-3-yl)methoxy)isoindolin-1-one] | – | – | 675 nM
Cn1ccc(COc2cc3c(cc2-c2ccc(F)nc2)C(=O)NC3)n1 [Compound 44, 6-(6-fluoropyridin-3-yl)-5-((1-methyl-1H-pyrazol-3-yl)methoxy)isoindolin-1-one] | – | – | 1840 nM
Cn1ccc(COc2cc3c(cc2-c2ccc(OC(F)F)cc2F)C(=O)NC3)n1 [Compound 42, 6-(4-(difluoromethoxy)-2-fluorophenyl)-5-((1-methyl-1H-pyrazol-3-yl)methoxy)isoindolin-1-one] | – | – | 393 nM
Cn1cc(OCc2cc3c(cc2-c2ccc(F)cc2)C(=O)NC3)cn1 [Compound 63, 6-(4-fluorophenyl)-5-(((1-methyl-1H-pyrazol-4-yl)oxy)methyl)isoindolin-1-one] | – | – | 1190 nM and 1570 nM
Cn1ccc(-c2cc3c(cc2OCc2ccn(C)n2)CNC3=O)c1 [Compound 47, 5-((1-methyl-1H-pyrazol-3-yl)methoxy)-6-(1-methyl-1H-pyrrol-3-yl)isoindolin-1-one] | – | – | > 10000 nM
Cn1cc(CN2CC(Oc3cc4c(cc3-c3ccc(F)cc3)C(=O)NC4)C2)cn1 [Compound 78, 6-(4-fluorophenyl)-5-((1-((1-methyl-1H-pyrazol-4-yl)methyl)azetidin-3-yl)oxy)isoindolin-1-one] | – | – | > 10000 nM
[2H]C1([2H])NC(=O)c2cc(-c3ccc(F)cc3)c(OC([2H])([2H])c3cnn(C)c3)cc21 [Compound 34, 6-(4-fluorophenyl)-5-((1-methyl-1H-pyrazol-4-yl)methoxy-d2)isoindolin-1-one-3,3-d2] | – | – | 836 nM
Cc1c(-c2cc3c(cc2OCc2ccn(C)n2)CNC3=O)cc(C#N)n1C [Compound 49, 1,5-dimethyl-4-(6-((1-methyl-1H-pyrazol-3-yl)methoxy)-3-oxoisoindolin-5-yl)-1H-pyrrole-2-carbonitrile] | – | – | > 10000 nM
Cc1nocc1S(=O)(=O)N1CC(Oc2cc3c(cc2-c2ccc(F)cc2)C(=O)NC3)C1 [Compound 74, 6-(4-fluorophenyl)-5-((1-((3-methylisoxazol-4-yl)sulfonyl)azetidin-3-yl)oxy)isoindolin-1-one] | – | – | > 10000 nM
O=C1NCc2cc(OC3CN(C(=O)c4cccs4)C3)c(-c3ccc(F)cc3)cc21 [Compound 67, 6-(4-fluorophenyl)-5-((1-(thiophene-2-carbonyl)azetidin-3-yl)oxy)isoindolin-1-one] | – | – | > 10000 nM
